The source of these data is ChEMBL document CHEMBL1201862, “PubChem BioAssay data set” (2004).

Structures are written as SMILES.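 In this assay, cells in 96-well plates receive the compound at five concentrations for 48 hours. Endpoints are linearly interpolated between the surrounding concentrations. Abbreviation: GI50, concentration required for 50% inhibition of growth.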 The source made the active and inactive calls. Rule as the data show it: active = GI50 up to about 1.1 µM and inactive = higher.

Some test systems named below: NCI-H226; SK-OV-3; SN12C; LOX IMVI; RPMI-8226; UACC-257; SK-MEL-28; HOP-62; HL-60; RXF 393; OVCAR-8; OVCAR-3; TK-10; IGROV-1; BT-549; HT-29; MCF7; SF-539.
What all share (assay): growth of human tumour cells (NCI), 48 h

Turning to `COC(=O)c1c[nH]c2c1-c1cc(C(=O)OCc3ccccc3)n(S(=O)(=O)c3ccc(C)cc3)c1C(=O)C2=O`, the GI50 was 0.729 µM (active) with NCI-H226; 1.24 µM (inactive) with SK-OV-3; 0.165 µM (active) in the experiment with SN12C; 0.139 µM (active) in the experiment on LOX IMVI; 0.362 µM (active) in the experiment with RPMI-8226; 0.156 µM (active) in the experiment with UACC-257. Also, the GI50 was 0.12 µM (active) in the experiment on SK-MEL-28; 0.376 µM (active) in the experiment with HOP-62; 0.144 µM (active) in the experiment on HL-60; 0.214 µM (active) in the experiment on RXF 393; 0.237 µM (active) in the experiment with OVCAR-8; 0.0316 µM (active) in the experiment on OVCAR-3. Also, the GI50 in the experiment with TK-10 was 2 µM (inactive); in the experiment with IGROV-1, 0.372 µM (active); in the experiment on BT-549, 0.19 µM (active); with HT-29, 0.473 µM (active); in the experiment with MCF7, 0.184 µM (active); in the experiment on SF-539, 0.197 µM (active).

In the case of `O=C1/C(=C\c2ccc(F)cc2)CCOc2c1ccc1ccccc21`, the GI50 in the experiment with SK-OV-3 was 36.6 µM (inactive); in the experiment on SN12C, 35.3 µM (inactive); in the experiment on RPMI-8226 it was 3.3 µM (inactive); with UACC-257 it was 19.5 µM (inactive); in the experiment with SK-MEL-28, 23.3 µM (inactive); with HOP-62, 26.8 µM (inactive). Further, the GI50 was 14.9 µM (inactive) in the experiment with HL-60; 13.4 µM (inactive) in the experiment on RXF 393; 12.7 µM (inactive) in the experiment with OVCAR-8; 8.15 µM (inactive) with OVCAR-3; 24.4 µM (inactive) in the experiment with TK-10; 25.6 µM (inactive) in the experiment on BT-549. In addition, the GI50 is 17.4 µM (inactive) in the experiment with HT-29, 10.4 µM (inactive) with MCF7 and 21.9 µM (inactive) in the experiment with SF-539.

On to `O=Cc1ccc(-c2ccc(-c3ccc(CO)s3)o2)s1`, for which the GI50 in the experiment on NCI-H226 was 0.0681 µM (active); in the experiment on SK-OV-3, 19.7 µM (inactive); in the experiment with SN12C it was 17.7 µM (inactive); in the experiment on LOX IMVI it was 9.04 µM (inactive); in the experiment with RPMI-8226 it was 1.54 µM (inactive); with UACC-257, 0.364 µM (active). Moreover, the GI50 is > 35.9 µM (inactive) with SK-MEL-28; 17.4 µM (inactive) with HOP-62; 3.85 µM (inactive) in the experiment on HL-60; 5.74 µM (inactive) with RXF 393; 7.28 µM (inactive) in the experiment with OVCAR-8; 0.372 µM (active) with OVCAR-3. Besides, the GI50 in the experiment on TK-10 is 0.237 µM (active); in the experiment with IGROV-1 it was 0.547 µM (active); in the experiment on BT-549, 6.24 µM (inactive); in the experiment with HT-29 it was 7.83 µM (inactive); in the experiment on MCF7 it was 0.348 µM (active); with SF-539 it was 17.9 µM (inactive).

For `CCCCCCCCCC[C@@H](O)[C@H]1CC[C@@H]([C@H]2CC[C@H]([C@H](O)CCCCCCCCCC[C@@H]3CC(CC(C)=O)C(=O)O3)O2)O1` (some centres not stated), the GI50 in the experiment on NCI-H226 was 1 µM (active); in the experiment on SN12C, 2.17 µM (inactive); with LOX IMVI it was 1.23 µM (inactive); with RPMI-8226 it was 2.39 µM (inactive); in the experiment with UACC-257 it was 2.14 µM (inactive); with SK-MEL-28, 3.46 µM (inactive). Also, the GI50 was 7.55 µM (inactive) in the experiment on HOP-62; 4.99 µM (inactive) in the experiment with RXF 393; 2.34 µM (inactive) in the experiment on OVCAR-8; 3.75 µM (inactive) with OVCAR-3; 4.73 µM (inactive) in the experiment with TK-10; 8.28 µM (inactive) in the experiment on IGROV-1. For the same compound, the GI50 was 2.48 µM (inactive) in the experiment on BT-549, 3.42 µM (inactive) with HT-29, 1.31 µM (inactive) with MCF7 and 7.05 µM (inactive) with SF-539.
